This note sets out measurements from patent publication US6951856B2, “Arylethene-sulfonamides” (Actelion Pharmaceuticals Ltd., priority 2000, dated 2005).

The target of assay [1] is T1, human recombinant ETB receptors (Homo sapiens, UniProt P24530).
T1 construct: expressed in transfected cells; host or cells: CHO cells (microsomal membranes)
T1 sequence (P24530 27-442): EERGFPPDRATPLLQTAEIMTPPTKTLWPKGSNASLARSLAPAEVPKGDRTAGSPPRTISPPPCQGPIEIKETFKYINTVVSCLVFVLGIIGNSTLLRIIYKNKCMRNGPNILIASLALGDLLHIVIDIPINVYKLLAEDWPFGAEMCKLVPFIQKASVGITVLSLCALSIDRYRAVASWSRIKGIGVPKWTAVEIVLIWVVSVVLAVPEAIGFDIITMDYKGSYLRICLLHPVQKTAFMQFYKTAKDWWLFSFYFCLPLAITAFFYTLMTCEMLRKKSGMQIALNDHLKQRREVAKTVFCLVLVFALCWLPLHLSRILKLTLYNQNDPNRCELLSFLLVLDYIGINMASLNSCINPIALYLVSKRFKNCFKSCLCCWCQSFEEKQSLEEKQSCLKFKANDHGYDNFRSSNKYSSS
The experiment in a line: Inhibition of [125I]ET-1 binding to membranes from CHO cells carrying human ETB receptors. As for the experimental part:
(§1) 1) Inhibition of Endothelin Binding to Membranes from CHO Cells Carrying Human ET Receptors
(§2) For competition binding studies, membranes of CHO cells expressing human recombinant ETA or ETB receptors were used. Microsomal membranes from recombinant CHO cells were prepared and the binding assay made as previously described (Breu V., et al, FEBS Lett 1993; 334:210).
(§3) The assay was performed in 200 uL 50 mM Tris/HCl buffer, pH 7.4, including 25 mM MnCl2, 1 mM EDTA and 0.5% (w/v) BSA in polypropylene microtiter plates. […] After 2 h, the membranes were filtered on filterplates containing GF/C filters (Unifilterplates from Canberra Packard S.A. Zürich, Switzerland). To each well, 50 uL of scintillation cocktail was added (MicroScint 20, Canberra Packard S.A. Zürich, Switzerland) and the filter plates counted in a microplate counter (TopCount, Canberra Packard S.A. Zürich, Switzerland).
(§4) All the test compounds were dissolved, diluted and added in DMSO.

The target of assay [2] is T2, human recombinant ETA receptors (Homo sapiens, UniProt P25101).
T2 construct: expressed in transfected cells; host or cells: CHO cells (microsomal membranes)
T2 sequence (P25101 21-427): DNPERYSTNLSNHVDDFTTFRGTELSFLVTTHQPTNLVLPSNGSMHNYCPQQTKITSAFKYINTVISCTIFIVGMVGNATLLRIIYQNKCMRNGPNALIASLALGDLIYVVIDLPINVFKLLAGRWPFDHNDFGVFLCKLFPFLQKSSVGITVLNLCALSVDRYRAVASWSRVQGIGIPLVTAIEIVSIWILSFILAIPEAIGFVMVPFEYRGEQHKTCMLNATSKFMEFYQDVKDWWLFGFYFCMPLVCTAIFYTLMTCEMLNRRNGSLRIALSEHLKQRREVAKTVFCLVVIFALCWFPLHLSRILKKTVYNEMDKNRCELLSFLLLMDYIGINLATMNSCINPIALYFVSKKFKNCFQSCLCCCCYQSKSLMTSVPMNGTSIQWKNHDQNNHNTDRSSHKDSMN
Put plainly: Inhibition of [125I]ET-1 binding to membranes from CHO cells carrying human ETA receptors. The note with it: CHO cell membranes, 8 pM [125I]ET-1, 2 h at 20° C. As for the experimental part:
as §1, §2, §3, §4

In a further assay the target is T3, ETA receptors (Rattus norvegicus, UniProt P26684).
T3 construct: The thoracic aorta or trachea were excised, dissected and cut in 3-5 mm rings; from tissue; host or cells: thoracic aorta rings of adult Wistar rats, endothelium removed
T3 sequence (P26684 21-426): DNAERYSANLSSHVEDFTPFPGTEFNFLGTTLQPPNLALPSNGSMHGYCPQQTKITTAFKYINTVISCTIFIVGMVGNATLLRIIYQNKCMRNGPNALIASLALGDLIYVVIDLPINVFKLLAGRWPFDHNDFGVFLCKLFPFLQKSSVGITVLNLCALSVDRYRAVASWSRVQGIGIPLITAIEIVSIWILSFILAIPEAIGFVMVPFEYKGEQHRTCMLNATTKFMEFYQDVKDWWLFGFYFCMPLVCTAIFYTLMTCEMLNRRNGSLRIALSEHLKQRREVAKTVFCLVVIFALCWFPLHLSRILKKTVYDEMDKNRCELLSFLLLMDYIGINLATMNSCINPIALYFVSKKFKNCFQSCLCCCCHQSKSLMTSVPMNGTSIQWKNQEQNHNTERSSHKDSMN
Put plainly: Inhibition of endothelin-1-induced contractions on isolated rat aortic rings. It is filed as cell-based. As for the experimental part:
(§5) 2) Inhibition of Endothelin-Induced Contractions on Isolated Rat Aortic Rings (ETA Receptors) and Rat Tracheal Rings (ETB Receptors):
(§6) Adult Wistar rats were anesthetized and exsanguinated. The thoracic aorta or trachea were excised, dissected and cut in 3-5 mm rings. The endothelium/epithelium was removed by gentle rubbing of the intimal surface. Each ring was suspended in a 10 ml isolated organ bath filled with Krebs-Henseleit solution (in mM; NaCl 115, KCl 4.7, MgSO4 1.2, KH2PO4 1.5, NaHCO3 25, CaCl2 2.5, glucose 10) kept at 37° and gassed with 95% O2 and 5% CO2. The rings were connected to force transducers and isometric tension was recorded (EMKA Technologies SA, Paris, France). The rings were stretched to a resting tension of 3 g (aorta) or 2 g (trachea). […] The functional inhibitory potency of the test compound was assessed by calculating the concentration ratio, i.e. the shift to the right of the EC50 induced by different concentrations of test compound. EC50 is the concentration of endothelin needed to get a half-maximal contraction, pA2 is the negative logarithm of the antagonist concentration which induces a two-fold shift in the EC50 value.

For a further assay, the target named is T4, ETB receptors (Rattus norvegicus, UniProt P21451).
T4 construct: The thoracic aorta or trachea were excised, dissected and cut in 3-5 mm rings; from tissue; host or cells: tracheal rings of adult Wistar rats, epithelium removed
T4 sequence (P21451 27-442): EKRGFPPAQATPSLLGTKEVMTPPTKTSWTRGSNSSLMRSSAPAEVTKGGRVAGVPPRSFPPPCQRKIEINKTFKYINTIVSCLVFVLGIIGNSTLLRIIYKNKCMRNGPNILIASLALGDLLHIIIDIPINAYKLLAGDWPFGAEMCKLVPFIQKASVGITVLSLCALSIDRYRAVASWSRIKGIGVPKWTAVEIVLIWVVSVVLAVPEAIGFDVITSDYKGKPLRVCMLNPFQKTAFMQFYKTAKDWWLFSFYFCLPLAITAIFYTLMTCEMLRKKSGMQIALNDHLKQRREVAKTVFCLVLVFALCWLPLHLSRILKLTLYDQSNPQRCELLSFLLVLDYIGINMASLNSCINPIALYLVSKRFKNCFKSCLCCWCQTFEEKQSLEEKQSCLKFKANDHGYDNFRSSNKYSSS
The experiment in a line: Inhibition of sarafotoxin S6c-induced contractions on isolated rat tracheal rings. It is filed as cell-based. As for the experimental part: as §5, §6

Where [3] appears, read: read-out: pA2 value ETA (converted).

Molecules are shown by their SMILES. Where two headings read alike, the source gives them in different places.

As for `Cc1ccc(-c2c(NS(=O)(=O)/C=C/c3ccccc3)ncnc2OCCOc2ncc(Cl)cn2)cc1` [Example 14], the IC50 – broadly, the concentration that inhibits the measured activity by half – in assay [1] was found to be 0.841 µM; in assay [2] it was 0.00475 µM. The Kb on ETA receptors (setting [3]) was 0.00214 µM.

Regarding `COc1ccccc1Oc1c(NS(=O)(=O)/C=C/c2ccccc2)nc(N2CCOCC2)nc1OCCOc1ncc(F)cn1` [Example 196], the results for the IC50 in assay [1] and in assay [2] were 0.427 µM and 0.0047 µM, respectively. At ETA receptors (setting [3]), the Kb was 0.0209 µM.

With `Cc1ccc(-c2c(NS(=O)(=O)/C=C/c3ccccc3)nc(-c3ncccn3)nc2OCCOc2ncc(Br)cn2)cc1` [Example 140], the figures for the IC50 in assay [1] and in assay [2] were 1.09 µM and 0.0125 µM, respectively. Further, the Kb on ETA receptors (setting [3]) is 0.00186 µM.

Consider `Cc1ccc(-c2c(NS(=O)(=O)/C=C/c3ccccc3)ncnc2OCCOc2ncc(F)cn2)cc1` [Example 15], for which the values for the IC50 in assay [1] and in assay [2] were 2.13 µM and 0.018 µM, respectively. Moreover, at ETA receptors (setting [3]), the Kb was 0.0269 µM.

Turning to `Cc1ccc(-c2c(NS(=O)(=O)/C=C/c3ccccc3)ncnc2OCCOc2ncc(Br)cn2)cc1` [Example 1, 2-phenyl-ethenesulfonic acid {6-[2-(5-bromo-pyrimidin-2-yloxy)-ethoxy]-5-p-tolyl-pyrimidin-4-yl}-amide], the IC50 in assay [1] was found to be 0.569 µM; in assay [2], 0.0018 µM. In addition, the Kb on ETA receptors is 0.00186 µM; on ETB receptors it was 0.0813 µM.

As for `COc1ccccc1Oc1c(NS(=O)(=O)/C=C/c2ccccc2)nc(N2CCOCC2)nc1OCCOc1ncc(Cl)cn1` [Example 195], the values for the IC50 in assay [1] and in assay [2] were 0.293 µM and 0.006 µM, respectively. In addition, the Kb on ETA receptors (setting [3]) is 0.00912 µM.

`COc1ccccc1Oc1c(NS(=O)(=O)/C=C/c2ccccc2)nc(N2CCOCC2)nc1OCCOc1ncc(Br)cn1` [Example 193]: the values for the IC50 in assay [1] and in assay [2] were 0.537 µM and 0.0026 µM, respectively. In addition, the Kb at ETA receptors (setting [3]) was 0.00251 µM; at ETB receptors, 0.126 µM.

As for `O=S(=O)(/C=C/c1ccccc1)Nc1ncnc(OCCOc2ncc(Br)cn2)c1-c1ccccc1` [Example 92], the IC50 came to 7.47 µM in assay [1] and 0.02 µM in assay [2]. The Kb on ETA receptors (setting [3]) is 0.0123 µM.

As to `O=S(=O)(/C=C/c1ccccc1)Nc1ncnc(OCCOc2ncc(Br)cn2)c1-c1ccc(Br)cc1` [Example 85], the IC50 in assay [1] amounted to 0.238 µM; in assay [2], 0.0038 µM. Also, the Kb on ETA receptors (setting [3]) is 0.000851 µM.

Regarding `O=S(=O)(/C=C/c1ccccc1)Nc1ncnc(OCCOc2ncc(Br)cn2)c1-c1ccc(Cl)cc1` [Example 43], the IC50 in assay [1] amounted to 0.408 µM; in assay [2], 0.0046 µM. Further, on ETA receptors (setting [3]), the Kb was 0.000851 µM.

On to `Cc1ccc(-c2c(NS(=O)(=O)/C=C/c3cccs3)ncnc2OCCOc2ncc(Br)cn2)cc1` [Example 67], for which the IC50 in assay [1] stood at 0.752 µM; in assay [2], 0.0078 µM. The Kb at ETA receptors (setting [3]) was 0.000316 µM.

On to `COc1ccccc1Oc1c(NS(=O)(=O)/C=C/c2ccccc2)nc(-c2ncccn2)nc1OCCOc1ncccn1` [Example 152], for which the IC50 in assay [1] was 4.82 µM; in assay [2], 0.0433 µM. In addition, the figures for the Kb at ETA receptors (setting [3]) and at ETB receptors were 0.0204 µM and 0.912 µM, respectively.

As for `COc1ccccc1Oc1c(NS(=O)(=O)/C=C/c2ccccc2)ncnc1OCCOc1ncc(Br)cn1` [Example 211], the IC50 in assay [1] was found to be 2.64 µM; in assay [2], 0.038 µM. The figures for the Kb on ETA receptors (setting [3]) and at ETB receptors were 0.0245 µM and 0.224 µM, respectively.

For the compound `COc1ccccc1Oc1c(NS(=O)(=O)/C=C/c2ccccc2)nc(N2CCOCC2)nc1OCCOc1ncccn1` [Example 194], the results for the IC50 in assay [1] and in assay [2] were 0.627 µM and 0.0078 µM, respectively. Besides, the Kb at ETA receptors (setting [3]) was 0.0316 µM; on ETB receptors, 0.316 µM.

With `COc1ccccc1Oc1c(NS(=O)(=O)/C=C/c2cccs2)nc(-c2ccncc2)nc1OCCOc1ncccn1` [Example 174], the IC50 in assay [1] was 1.01 µM; in assay [2] it was 0.0067 µM. Also, at ETA receptors (setting [3]), the Kb is 0.0132 µM.

Regarding `COc1ccccc1Oc1c(NS(=O)(=O)/C=C/c2cccs2)nc(-c2ccncc2)nc1OCCOc1ncc(Br)cn1` [Example 173], the IC50 in assay [1] came to 0.976 µM; in assay [2], 0.0042 µM. The Kb on ETA receptors (setting [3]) was 0.00148 µM; on ETB receptors it was 0.0794 µM.

Regarding `Cc1ccc(-c2c(NS(=O)(=O)/C=C/c3ccccc3)nc(-c3ccncc3)nc2OCCOc2ncc(Br)cn2)cc1` [Example 80], the IC50 was 2.57 µM in assay [1] and 0.0197 µM in assay [2]. The Kb is 0.00447 µM on ETA receptors (setting [3]) and 6.17 µM at ETB receptors.

For `Cc1ccc(-c2c(NS(=O)(=O)/C=C/c3ccc(Cl)cc3)ncnc2OCCOc2ncc(Br)cn2)cc1` [Example 27], the IC50 in assay [1] stood at 0.193 µM; in assay [2], 0.0115 µM.

Turning to `COc1ccccc1Oc1c(NS(=O)(=O)/C=C/c2cccs2)ncnc1OCCOc1ncc(Br)cn1` [Example 214], the IC50 in assay [1] was determined as 3.94 µM; in assay [2], 0.039 µM.
